Laboratory results taken from patent US20180327367A1, “MACROCYCLIC BROAD SPECTRUM ANTIBIOTICS” (priority 2015, published 2018).
Values after ≈ are worked out from the molar mass of the structure shown. Where two headings read alike, the source gives them in different places.

Assays:
Assay type in all cases: cell-based
[1] = system: Escherichia coli ATCC 25922; assay: Minimum inhibitory concentration, broth micro-dilution (CLSI), E. coli; details: Escherichia coli, ATCC25922, 22 h, 35° C., 22 hours
Description: Cells were inoculated onto plates of Trypyticase Soy Agar or Luria Agar respectively and grown at 35° C. for 20 hours. Inocula suspensions were prepared by scraping cells into 1 mL of testing media (cation adjusted Mueller Hinton Broth supplemented with 0.002% v/v Tween-80) and diluting to a final OD600 nm of 0.01.
(§1) Test compounds were prepared in DMSO at a concentration of 10 mg/mL. […] In protocol 2, the compound stocks were diluted into testing media at a concentration of 4 μg/mL and serial 2-fold dilutions were made in the same media, in 96-well U bottom microtiter dishes, for a total of 10 compound concentrations. In protocol 3, compound stocks were diluted into testing media at a concentration of 0.5 μg/mL, with serial 2-fold dilutions conducted as described above. […] Inocula suspensions were added to the 2-fold serial dilutions of test compounds to a final density of OD OD600 nm of 0.0005 and incubated at 35° C. for 22 hours.

[2] = system: Escherichia coli MC4100 harboring the IMP4213 (E. coli IMP); assay: microbe, parasite or virus in culture; details: Escherichia coli, 22 h, read-out: MIC (μg/mL) E. coli IMP, E. coli MC4100 IMP4213, increased outer-membrane permeability; 35° C., 22 hours
Description: (§2) In vitro antimicrobial activity of each compound was determined by measuring minimal inhibitor concentrations (MICs) using the broth micro-dilution technique as approved by the Clinical and Laboratory Standards Institute (CLSI) (Methods for Dilution Antimicrobial Susceptibility Tests for Bacteria that Grow Aerobically; Approved Standard—Eighth Edition. CLSI document M07-A8. Wayne, Pa.: Clinical and Laboratory Standards; 2009). Antibacterial activity was measure against three strains of bacteria: a Methicillin Resistant Staphylococcus aureus strain USA 300, NRS384 (S. aureus); a strain of Escherichia coli MC4100 harboring the IMP4213 (E. coli IMP), which results in increased outer-membrane permeability (B Martin and Silhavy T. Imp/OstA is required for cell envelope biogenesis in Escherichia coli. (2002) Molecular Microbiology, 45(5), 1289-1302), and Escherichia coli ATCC 25922 (E. coli), a clinically relevant Gram-negative strain. Cells were inoculated onto plates of Trypyticase Soy Agar or Luria Agar respectively and grown at 35° C. for 20 hours. Inocula suspensions were prepared by scraping cells into 1 mL of testing media (cation adjusted Mueller Hinton Broth supplemented with 0.002% v/v Tween-80) and diluting to a final OD600 nm of 0.01.
as §1

[3] = system: Methicillin Resistant Staphylococcus aureus strain USA 300, NRS384; assay: Minimum inhibitory concentration, broth micro-dilution (CLSI), S. aureus; details: Staphylococcus aureus, MRSA / NRS 384 / USA300, 22 h, 35° C., 22 hours
Description: as §2, §1

[4] = E. coli ATCC 25922, read-out: MIC (μg/mL) E. coli
[5] = MRSA USA 300 NRS384, read-out: MIC (μg/mL) S. aureus
[6] = read-out: MIC (μg/mL) E. coli, E. coli ATCC 25922
[7] = read-out: MIC (μg/mL) S. aureus, MRSA USA 300 NRS384

Compound	MIC [1, 4] [µg/mL]	MIC [2] [µg/mL]	MIC [3, 5] [µg/mL]	MIC [1, 6] [µg/mL]	MIC [3, 7] [µg/mL]
CCCCCCCc1ccc(C(=O)N[C@@H](CCN)C(=O)N(C)[C@@H]2C(=O)N[C@@H](C)C(=O)N[C@H](C(=O)NCC#N)Cc3ccc(OCCN)c(c3)-c3cc2ccc3O)c(C)c1 [Compound 315]	0.38 (≈ 0.469 µM)	0.014 (≈ 0.0173 µM)	0.078 (≈ 0.0962 µM)	–	–
CCCCCCCCCCCCCC(=O)N[C@@H](CCN)C(=O)N(C)[C@@H]1C(=O)N[C@@H](C)C(=O)N[C@H](C(=O)NCC#N)Cc2ccc(OCC(=O)O)c(c2)-c2cc1ccc2OCCN [Compound 327]	2 (≈ 2.32 µM)	0.0078 (≈ 0.00904 µM)	0.25 (≈ 0.29 µM)	–	–
CCCCCCCCCCCCCC(=O)N[C@@H](CCN)C(=O)N(C)[C@@H]1C(=O)N[C@@H](C)C(=O)N[C@H](C(=O)NCC#N)Cc2ccc(OCC(=O)OC(C)(C)C)c(c2)-c2cc1ccc2OCCN [Compound 328]	4 (≈ 4.35 µM)	0.25 (≈ 0.272 µM)	1 (≈ 1.09 µM)	–	–
CCCCCCc1ccc(S(=O)(=O)N[C@@H](CCN)C(=O)N(C)[C@@H]2C(=O)N[C@@H](C)C(=O)N[C@H](C(=O)NCC#N)Cc3ccc(OCCN)c(c3)-c3cc2ccc3OCCN)c(C)c1 [Compound 347]	–	0.063 (≈ 0.0719 µM)	–	8 (≈ 9.13 µM)	0.063 (≈ 0.0719 µM)
CCCCCCCCCCNCCS(=O)(=O)N[C@@H](CCCN)C(=O)N(C)[C@@H]1C(=O)N[C@@H](C)C(=O)N[C@H](C(=O)NCC#N)Cc2ccc(OCCN)c(c2)-c2cc1ccc2OCCN [Compound 349]	8 (≈ 8.9 µM)	0.13 (≈ 0.145 µM)	0.016 (≈ 0.0178 µM)	–	–
CCCCCCCCCCNCCS(=O)(=O)N(C)[C@@H]1C(=O)N[C@@H](C)C(=O)N[C@H](C(=O)NCC#N)Cc2ccc(OCCN)c(c2)-c2cc1ccc2OCCN [Compound 351]	> 64	> 4	1 (≈ 1.27 µM)	–	–
CCCCCCCCCC(=O)N[C@H](C(=O)N[C@@H](CCN)C(=O)N(C)[C@@H]1C(=O)N[C@@H](C)C(=O)N[C@H](C(=O)NCC#N)Cc2ccc(OCCN)c(c2)-c2cc1ccc2OCCN)[C@@H](C)O [Compound 356]	–	0.13 (≈ 0.146 µM)	–	12 (≈ 13.4 µM)	0.094 (≈ 0.105 µM)
CCCCCCCCCC(=O)N[C@H](CO)C(=O)N[C@@H](CCN)C(=O)N(C)[C@@H]1C(=O)N[C@@H](C)C(=O)N[C@H](C(=O)NCC#N)Cc2ccc(OCCN)c(c2)-c2cc1ccc2OCCN [Compound 359]	–	0.13 (≈ 0.148 µM)	–	16 (≈ 18.2 µM)	0.063 (≈ 0.0717 µM)
CCCCCCCCCNC(=O)CC(=O)N[C@@H](CCN)C(=O)N(C)[C@@H]1C(=O)N[C@@H](C)C(=O)N[C@H](C(=O)NCC#N)Cc2ccc(OCCN)c(c2)-c2cc1ccc2OCCN [Compound 361]	16 (≈ 18.8 µM)	0.13 (≈ 0.153 µM)	0.13 (≈ 0.153 µM)	–	–
CCCCCCCCCC(=O)NCC(=O)NCC(=O)N[C@@H](CCN)C(=O)N(C)[C@@H]1C(=O)N[C@@H](C)C(=O)N[C@H](C(=O)NCC#N)Cc2ccc(OCCN)c(c2)-c2cc1ccc2OCCN [Compound 362]	–	0.5 (≈ 0.552 µM)	–	32 (≈ 35.3 µM)	0.25 (≈ 0.276 µM)
CCCCCCCCCC(=O)N[C@@H](C)C(=O)NCC(=O)N[C@@H](CCN)C(=O)N(C)[C@@H]1C(=O)N[C@@H](C)C(=O)N[C@H](C(=O)NCC#N)Cc2ccc(OCCN)c(c2)-c2cc1ccc2OCCN [Compound 363]	–	0.5 (≈ 0.543 µM)	–	64 (≈ 69.6 µM)	0.25 (≈ 0.272 µM)
CCCCCCCCCC(=O)N[C@@H](C)C(=O)NCCC(=O)N[C@@H](CCN)C(=O)N(C)[C@@H]1C(=O)N[C@@H](C)C(=O)N[C@H](C(=O)NCC#N)Cc2ccc(OCCN)c(c2)-c2cc1ccc2OCCN [Compound 364]	48 (≈ 51.4 µM)	0.75 (≈ 0.803 µM)	0.38 (≈ 0.407 µM)	–	–
CCCCCCCCCC(=O)N[C@H](C)C(=O)NCCC(=O)N[C@@H](CCN)C(=O)N(C)[C@@H]1C(=O)N[C@@H](C)C(=O)N[C@H](C(=O)NCC#N)Cc2ccc(OCCN)c(c2)-c2cc1ccc2OCCN [Compound 365]	64 (≈ 68.5 µM)	0.5 (≈ 0.535 µM)	0.38 (≈ 0.407 µM)	–	–
CCCCCCCCCC(=O)NCCC(=O)NCC(=O)N[C@@H](CCN)C(=O)N(C)[C@@H]1C(=O)N[C@@H](C)C(=O)N[C@H](C(=O)NCC#N)Cc2ccc(OCCN)c(c2)-c2cc1ccc2OCCN [Compound 368]	–	1 (≈ 1.09 µM)	–	64 (≈ 69.6 µM)	0.25 (≈ 0.272 µM)
CCCCCCCCCC(=O)N[C@H](C)C(=O)N[C@@H](CCN)C(=O)N(C)[C@@H]1C(=O)N[C@@H](C)C(=O)N[C@H](C(=O)NCC#N)Cc2ccc(OCCN)c(c2)-c2cc1ccc2OCCN [Compound 374]	–	0.13 (≈ 0.151 µM)	–	16 (≈ 18.5 µM)	0.19 (≈ 0.22 µM)
CCCCCCCCCC(=O)NCCC(=O)NCCC(=O)N[C@@H](CCN)C(=O)N(C)[C@@H]1C(=O)N[C@@H](C)C(=O)N[C@H](C(=O)NCC#N)Cc2ccc(OCCN)c(c2)-c2cc1ccc2OCCN [Compound 376]	> 64	2.3 (≈ 2.46 µM)	0.5 (≈ 0.535 µM)	–	–
CCCCc1ccc(C(=O)N[C@@H](CCN)C(=O)N[C@@H](C)C(=O)N(C)[C@@H]2C(=O)N[C@@H](C)C(=O)N[C@H](C(=O)NCC#N)Cc3ccc(OCCN)c(c3)-c3cc2ccc3OCCN)c(C)c1 [Compound 380]	–	4 (≈ 4.53 µM)	–	64 (≈ 72.5 µM)	> 4
CCCCc1ccc(C(=O)N[C@@H](CCO)C(=O)N[C@@H](CCN)C(=O)N(C)[C@@H]2C(=O)N[C@@H](C)C(=O)N[C@H](C(=O)NCC#N)Cc3ccc(OCCN)c(c3)-c3cc2ccc3OCCN)c(C)c1 [Compound 382]	–	0.5 (≈ 0.548 µM)	–	64 (≈ 70.1 µM)	0.5 (≈ 0.548 µM)
CCCCCCCCCC(=O)N[C@@H](CCC(N)=O)C(=O)N[C@@H](CCN)C(=O)N(C)[C@@H]1C(=O)N[C@@H](C)C(=O)N[C@H](C(=O)NCC#N)Cc2ccc(OCCN)c(c2)-c2cc1ccc2OCCN [Compound 385]	–	0.5 (≈ 0.543 µM)	–	32 (≈ 34.8 µM)	0.25 (≈ 0.272 µM)
CCCCCCCCCC(=O)N[C@@H](CCNC(C)=O)C(=O)N[C@@H](CCN)C(=O)N(C)[C@@H]1C(=O)N[C@@H](C)C(=O)N[C@H](C(=O)NCC#N)Cc2ccc(OCCN)c(c2)-c2cc1ccc2OCCN [Compound 386]	–	0.5 (≈ 0.535 µM)	–	64 (≈ 68.5 µM)	0.38 (≈ 0.407 µM)
CCCCCCCCCCCC(=O)N[C@@H](CC(=O)O)C(=O)N[C@@H](CN)C(=O)N(C)[C@@H]1C(=O)N[C@@H](C)C(=O)N[C@H](C(=O)NCC#N)Cc2ccc(OCCN)c(c2)-c2cc1ccc2OCCN [Compound 387]	–	0.38 (≈ 0.413 µM)	–	64 (≈ 69.5 µM)	0.25 (≈ 0.271 µM)
CCCCCCCCCC(=O)N(C)[C@@H](CO)C(=O)N[C@@H](CCN)C(=O)N(C)[C@@H]1C(=O)N[C@@H](C)C(=O)N[C@H](C(=O)NCC#N)Cc2ccc(OCCN)c(c2)-c2cc1ccc2OCCN [Compound 388]	–	0.25 (≈ 0.28 µM)	–	48 (≈ 53.7 µM)	0.25 (≈ 0.28 µM)
